This passage reports inhibition results from ChEMBL document CHEMBL1139736, “Microwave expedited synthesis of 5-aminocamptothecin analogs: Inhibitors of hypoxia inducible factor HIF-1alpha” (2006).

The test system of the first experiment is LNCaP C4-2. Briefly: Inhibition of HIF1alpha production in c4-2 cells at 10 uM after 24 hrs relative to control. It counts as functional. Conditions: Homo sapiens, LNCaP C4-2, 24 h.
As for `CCCNc1c2c(c(=O)n3c1-c1nc4ccccc4cc1C3)COC(=O)[C@]2(O)CC`, the inhibition (in general, the drop in the measured response relative to a control, in per cent) at 10 µM was determined as 76%.

For the molecule `CC[C@@]1(O)C(=O)OCc2c1c(NCCF)c1n(c2=O)Cc2cc3ccccc3nc2-1`, the inhibition at 10 µM is 88%.

As for `CC[C@@]1(O)C(=O)OCc2c1c(NCc1cccc(F)c1)c1n(c2=O)Cc2cc3ccccc3nc2-1`, the inhibition at 10 µM came out at 0%.

`CC[C@@]1(O)C(=O)OCc2c1c(NCc1ccc(F)cc1)c1n(c2=O)Cc2cc3ccccc3nc2-1` registered an inhibition at 10 µM of 40%.

On to `CC[C@@]1(O)C(=O)OCc2c1c(NCc1ccc(OC)cc1)c1n(c2=O)Cc2cc3ccccc3nc2-1`, for which the inhibition at 10 µM was found to be 9%.

`CC[C@@]1(O)C(=O)OCc2c1cc1n(c2=O)Cc2cc3ccccc3nc2-1` [CAMPTOTHECIN] had an inhibition at 10 µM of 69%.

Molecule `CC[C@@]1(O)C(=O)OCc2c1cc1n(c2=O)Cc2cc3c(CN(C)C)c(O)ccc3nc2-1` [TOPOTECAN] returned an inhibition at 10 µM of 69%.

The subject of the next experiment is LNCaP C4-2. Description: Inhibition of HIF1-alpha production in c4-2 cells at 20 nM after 24 hrs relative to control. It counts as functional. The note with it: Homo sapiens, LNCaP C4-2, 24 h.
`CO[C@H]1C[C@@H]2CC[C@@H](C)[C@@](O)(O2)C(=O)C(=O)N2CCCC[C@H]2C(=O)O[C@H]([C@H](C)C[C@@H]2CC[C@@H](O)[C@H](OC)C2)CC(=O)[C@H](C)/C=C(\C)[C@@H](O)[C@@H](OC)C(=O)[C@H](C)C[C@H](C)/C=C/C=C/C=C/1C` [SIROLIMUS] registered an inhibition at 0.02 µM of 35%.
